# Reference: BindingDB's records for doi:10.3109/14756366.2012.680062 (Shandong University, 2013)
# Target: T1, Aminopeptidase N (Sus scrofa, UniProt P15145)
# T1 sequence (P15145 whole entry): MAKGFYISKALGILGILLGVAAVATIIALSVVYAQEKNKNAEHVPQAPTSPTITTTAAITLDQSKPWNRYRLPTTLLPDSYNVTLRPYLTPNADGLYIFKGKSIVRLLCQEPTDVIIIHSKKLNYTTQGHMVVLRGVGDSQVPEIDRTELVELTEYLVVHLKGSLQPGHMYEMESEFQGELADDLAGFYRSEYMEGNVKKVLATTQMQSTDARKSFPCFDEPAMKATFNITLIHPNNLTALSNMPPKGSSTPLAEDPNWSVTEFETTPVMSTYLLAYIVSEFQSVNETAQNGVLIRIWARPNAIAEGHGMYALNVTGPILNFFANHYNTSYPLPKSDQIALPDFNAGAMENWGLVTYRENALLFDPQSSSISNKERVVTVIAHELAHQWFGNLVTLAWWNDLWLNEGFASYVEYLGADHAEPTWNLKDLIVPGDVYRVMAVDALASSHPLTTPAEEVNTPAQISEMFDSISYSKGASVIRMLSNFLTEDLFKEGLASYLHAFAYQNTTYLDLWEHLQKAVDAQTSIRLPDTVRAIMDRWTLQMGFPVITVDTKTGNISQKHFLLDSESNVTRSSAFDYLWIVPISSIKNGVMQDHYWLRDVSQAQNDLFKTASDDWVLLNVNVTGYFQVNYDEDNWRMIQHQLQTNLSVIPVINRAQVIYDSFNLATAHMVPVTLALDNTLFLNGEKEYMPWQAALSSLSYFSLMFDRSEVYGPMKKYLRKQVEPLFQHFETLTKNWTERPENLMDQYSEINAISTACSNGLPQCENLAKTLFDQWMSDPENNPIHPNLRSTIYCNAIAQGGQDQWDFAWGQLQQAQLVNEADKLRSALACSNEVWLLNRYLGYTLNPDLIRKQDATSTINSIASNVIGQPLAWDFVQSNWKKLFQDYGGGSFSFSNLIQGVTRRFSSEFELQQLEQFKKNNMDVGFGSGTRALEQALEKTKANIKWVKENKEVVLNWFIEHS
# Assay: In Vitro APN Inhibition Assay
# Conditions: pH 7.2
row,IC50 [µM],Structure (SMILES)
1,2.51,CC(C)C[C@H](NC(=O)[C@H](Cc1ccc(O)cc1)NC(=O)[C@@H](O)CN)C(=O)O [L-isoserine-L-tyrosinase-L-leucyl (16l)]
2,30.2,CC(C)[C@H](NC(=O)[C@@H](O)CN)C(=O)N[C@@H](Cc1ccccc1)C(=O)O [L-isoserine-L-valine-L-phenylalanine (16d)]
3,51.5,CC(C)[C@H](NC(=O)[C@@H](NC(=O)[C@@H](O)CN)c1ccccc1)C(=O)O [L-isoserine-L-phenylglycine-L-valine (16c)]
4,6.5,CC(C)C[C@H](NC(=O)[C@@H](NC(=O)[C@@H](O)CN)C(C)C)C(=O)O [L-isoserine-L-valine-L-leucyl (16h)]
5,11.5,CC(C)[C@H](NC(=O)[C@H](Cc1ccc(O)cc1)NC(=O)[C@@H](O)CN)C(=O)O [L-isoserine-L-tyrosinase-L-valine (16e)]
6,13.6,CC(C)[C@H](NC(=O)[C@@H](NC(=O)[C@@H](O)CN)C(C)C)C(=O)O [L-isoserine-L-valine-L-valine (16f)]

# More lines, now with the values behind:
row,Structure (SMILES),IC50 [µM]
1,CCC(C)[C@H](NC(=O)[C@H](Cc1ccccc1)NC(=O)[C@@H](O)CN)C(=O)O (stereo partly drawn) [2-[2-(3-amino-2-hydroxypropanamido)-3-phenylpropanamido]-3-methylpentanoic acid (16a)],30.4
2,CC(C)C[C@H](NC(=O)[C@@H](NC(=O)[C@@H](O)CN)c1ccccc1)C(=O)O [L-isoserine-L-phenylglycine-L-leucyl (16k)],11.6
3,CC(C)C[C@H](NC(=O)[C@@H](O)CN)C(=O)N[C@H](C(=O)O)C(C)C [L-isoserine-L-leucyl-L-valine (16i)],5.16
4,NC[C@H](O)C(=O)N[C@H](C(=O)N[C@@H](Cc1ccccc1)C(=O)O)c1ccccc1 [L-isoserine-L-phenylglycine-L-phenylalanine (16g)],5.8
5,CC(C)[C@H](NC(=O)[C@H](Cc1ccccc1)NC(=O)[C@@H](O)CN)C(=O)O [L-isoserine-L-phenylalanine-L-valine (16b)],94
6,CC(C)C[C@H](NC(=O)[C@@H](O)CN)C(=O)N[C@@H](Cc1ccc(O)cc1)C(=O)O [L-isoserine-L-eucyl-L-tyrosinase (16m)],17.5
7,NC[C@H](O)C(=O)N[C@@H](Cc1ccccc1)C(=O)N[C@@H](Cc1ccccc1)C(=O)O [L-isoserine-L-phenylalanine-L-phenylalanine (16n)],6.5
